Results: ChEMBL document CHEMBL4828717, “Synthetic cajaninstilbene acid derivatives eradicate methicillin-resistant Staphylococcus aureus persisters and biofilms” (Eur J Med Chem, 2021)
The source made the active and inactive calls. The rule behind the calls is not given here.

Experiments:
Cell membrane [1] = experiment: Induction of cell membrane damage in methicillin resistant Staphylococcus aureus ATCC 43300 assessed as increase in nucleic acid leakage by measuring increase in absorbance at 260 nm at 0.5 to 2 times MIC measured every 30 mins for 6 hrs by spectrophotometry; type: subcellular
Staphylococcus aureus [2] = experiment: Antibacterial activity against methicillin resistant Staphylococcus aureus ATCC 52056 assessed as reduction in microbial growth after 16 to 18 hrs by microbroth dilution method; type: functional; conditions: time 16-18 hrs
Staphylococcus aureus [3] = experiment: Antimicrobial activity against methicillin-resistant Staphylococcus aureus ATCC 43300 infected in abscesses mouse model assessed as increase in mouse survival at 50 to 200 mg/kg, sc administered every 24 hrs for 4 days; type: functional, organism-based; conditions: dose 50-200 mg/kg
Staphylococcus aureus [4] = experiment: Synergistic antimicrobial activity against Staphylococcus aureus ATCC 43300 assessed as FICI at 2 times MIC after 24 hrs in presence of 4 ug/ml gentamicin by checkerboard assay; type: functional
Pseudomonas aeruginosa = experiment: Antibacterial activity against Pseudomonas aeruginosa ATCC27853 assessed as reduction in microbial growth after 16 to 18 hrs by microbroth dilution method; type: functional; conditions: time 16-18 hrs
Cell membrane [5] = experiment: Induction of cell membrane damage in methicillin resistant Staphylococcus aureus ATCC 43300 assessed as increase in ATP leakage […] at 0.5 times MIC measured every 30 mins for 6 hrs by Bactiter-glo assay; type: subcellular
Cell membrane [6] = experiment: Induction of cell membrane depolarization in methicillin resistant Staphylococcus aureus ATCC 43300 measured up to 60 mins by DiOC5 dye based flow analyzer; conditions: time min <=60, TDE = time-dependent effect
Staphylococcus aureus [7] = experiment: Synergistic antimicrobial activity against Staphylococcus aureus ATCC 43300 assessed as FICI at 0.25 times MIC after 24 hrs in presence of 128 ug/ml piperacillin by checkerboard assay; type: functional
Staphylococcus aureus [8] = experiment: Antibacterial activity against methicillin resistant Staphylococcus aureus ATCC48706 assessed as reduction in microbial growth after 16 to 18 hrs by microbroth dilution method; type: functional; conditions: time 16-18 hrs
Staphylococcus aureus [9] = experiment: Inhibition of biofilm formation in methicillin-resistant Staphylococcus aureus ATCC 43300 at 4 times MIC incubated for 24 hrs by crystal violet staining based microplate reader assay; type: functional
Staphylococcus aureus [10] = experiment: Antibacterial activity against methicillin resistant Staphylococcus aureus ATCC513045 assessed as reduction in microbial growth after 16 to 18 hrs by microbroth dilution method; type: functional; conditions: time 16-18 hrs
Staphylococcus aureus [11] = experiment: Induction of morphological changes in Staphylococcus aureus ATCC 43300 assessed as membrane damage at 8 times MIC after 90 mins by TEM analysis; type: functional, organism-based
Staphylococcus aureus [12] = experiment: Synergistic antimicrobial activity against Staphylococcus aureus ATCC 43300 assessed as FICI at 1 times MIC after 24 hrs in presence of 8 ug/ml gentamicin by checkerboard assay; type: functional
[13] = Cytotoxicity against mouse RAW264.7 cells assessed as cell viability at 10 ug/ml measured after 24 hrs by MTT assay; type: cell-based; conditions: RAW264.7 cells, at 10 µg/mL, read-out: Activity
Staphylococcus aureus [14] = experiment: Synergistic antimicrobial activity against Staphylococcus aureus ATCC 43300 assessed as FICI at 1 times MIC after 24 hrs in presence of 128 ug/ml kanamycin by checkerboard assay; type: functional

## CC(C)=CCc1c(OCCF)cc(/C=C/c2ccc(F)cc2)c(C(=O)O)c1O
Cell membrane [1]
  Activity: Active
Staphylococcus aureus [2]
  MIC: 4 µg/mL
Staphylococcus aureus [3]
  Activity: Active
Staphylococcus aureus [4]
  fractional inhibitory concentration index (FICI): 0.75
Pseudomonas aeruginosa
  MIC: > 32 µg/mL
Cell membrane [5]
  Activity: Active
Cell membrane [6]
  Activity: Tde
Staphylococcus aureus [7]
  fractional inhibitory concentration index (FICI): 0.3125
Staphylococcus aureus [8]
  MIC: 4 µg/mL
Staphylococcus aureus [9]
  inhibition (INH): 90%
Staphylococcus aureus [10]
  MIC: 4 µg/mL
Staphylococcus aureus [11]
  Activity: Active
Staphylococcus aureus [12]
  fractional inhibitory concentration index (FICI): 0.75
[13]
  viability at 24 h, 10 ug/ml: > 60%
Staphylococcus aureus [14]
  fractional inhibitory concentration index (FICI): 0.75
